Source: patent publication US8629135B2, “Pharmaceutical compositions comprising RET inhibitors and methods for the treatment of cancer” (Queen's University at Kingston, priority 2008, dated 2014)
“And” between values parts separate entries of the source, which are not always exact repeats. Identical values can stand only once. “Also recorded” adds a separate entry of the source. Counter-ions that a name gives are not always drawn. Like-named read-outs stand apart in the source and are kept apart here. Blank lines part the entries; values can stand above or below the compound they belong to.

Columns and labels:
[1] = target: T1, RET (Homo sapiens (Human), UniProt P07949); assay: Protein based RET kinase assay with purified recombinant GST-RET; assay type: biochemical
Target sequence in this assay (P07949 29-1114): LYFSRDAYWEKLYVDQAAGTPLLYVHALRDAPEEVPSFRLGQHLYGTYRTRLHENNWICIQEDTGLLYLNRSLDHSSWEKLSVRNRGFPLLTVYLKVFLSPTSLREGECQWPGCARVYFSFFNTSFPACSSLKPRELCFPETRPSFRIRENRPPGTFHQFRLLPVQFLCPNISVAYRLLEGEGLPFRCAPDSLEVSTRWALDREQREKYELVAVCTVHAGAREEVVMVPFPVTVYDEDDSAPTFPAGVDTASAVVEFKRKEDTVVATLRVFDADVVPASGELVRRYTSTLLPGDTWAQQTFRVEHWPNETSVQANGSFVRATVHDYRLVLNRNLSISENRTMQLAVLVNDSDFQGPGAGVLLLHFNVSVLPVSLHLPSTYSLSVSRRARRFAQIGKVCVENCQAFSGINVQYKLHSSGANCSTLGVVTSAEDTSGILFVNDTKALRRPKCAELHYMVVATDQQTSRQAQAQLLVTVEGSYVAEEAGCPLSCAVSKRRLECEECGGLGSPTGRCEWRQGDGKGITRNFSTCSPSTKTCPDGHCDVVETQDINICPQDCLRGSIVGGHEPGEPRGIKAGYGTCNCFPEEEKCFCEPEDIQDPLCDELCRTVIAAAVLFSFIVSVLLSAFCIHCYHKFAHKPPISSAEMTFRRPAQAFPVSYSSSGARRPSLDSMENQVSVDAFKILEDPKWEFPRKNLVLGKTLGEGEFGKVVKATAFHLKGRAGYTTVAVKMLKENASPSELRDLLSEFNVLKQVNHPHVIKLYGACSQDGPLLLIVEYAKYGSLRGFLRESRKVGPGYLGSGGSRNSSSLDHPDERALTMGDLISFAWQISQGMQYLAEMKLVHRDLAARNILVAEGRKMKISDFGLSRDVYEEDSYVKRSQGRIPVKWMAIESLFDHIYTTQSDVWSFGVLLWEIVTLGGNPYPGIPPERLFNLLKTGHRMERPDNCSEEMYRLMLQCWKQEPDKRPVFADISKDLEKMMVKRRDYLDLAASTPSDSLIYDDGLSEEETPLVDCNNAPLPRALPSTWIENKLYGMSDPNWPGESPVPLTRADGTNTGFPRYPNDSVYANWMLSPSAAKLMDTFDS

[2] = target: T1, RET; assay: RET autophosphorylation (pY905 Western blot) in HEK293 cells stably expressing RET; assay type: cell-based
Target sequence in this assay (P07949 29-1114 limits assumed): as the sequence (P07949 29-1114) above

[3] = tested on: MCF7 cells; settings: presence of GDNF
[4] = target: RET M918T mutant (Homo sapiens (Human), UniProt P07949, M918T); settings: HEK293 cells, 2 h
Sequence of RET M918T mutant (P07949 29-1114 M918T): as the sequence (P07949 29-1114) above, with M890T counted along it

[5] = tested on: TT cells
[6] = tested on: BxPc3 tumours; settings: BxPc3 xenograft, nude mice, 50 mg/kg intraperitoneal every three days
[7] = tested on: RET-mediated activation of ERK; settings: increasing concentrations, HEK293 cells
[8] = target: RET V804M mutant (Homo sapiens (Human), UniProt P07949, V804M); settings: HEK293 cells, 2 h
Sequence of RET V804M mutant (P07949 29-1114 V804M): as the sequence (P07949 29-1114) above, with V776M counted along it

[9] = tested on: MiaPaca-2 cells expressing RET; settings: MiaPaca-2, GDNF + SW-01 (5 μM) relative to GDNF alone
[10] = tested on: ERK or AKT pathways; settings: parental HEK 293 cells not expressing RET, increasing concentration
[11] = tested on: BxPc3
[12] = tested on: NCIH69 cells
[13] = tested on: TT cells; settings: 24 hours, 10× magnification
[14] = tested on: MiaPaca-2
[15] = tested on: MiaPaca-2 cells; settings: presence of GDNF
[16] = target: T1, RET; design: key to the marks not given beside the values; settings: RET phosphorylation levels
Target sequence in this assay (P07949 29-1114): as the sequence (P07949 29-1114) above

[17] = tested on: RET-expressing HEK293 cells
[18] = tested on: HEK293 cells stably expressing RET
[19] = tested on: MiaPaca-2 tumours; assay: Xenograft study, subcutaneous MiaPaca-2 tumours; assay type: in vivo; settings: MiaPaca-2 xenograft, nude mice, intraperitoneal; SW-01 50 mg/kg, gemcitabine 120 mg/kg
[20] = purified protein assay, read-out: IC50
[21] = cell based assay, read-out: EC50
[22] = varying concentrations, 2 hours, HEK293 cells expressing RET

IC50 [1, 20]: > 20 µM
EC50 [2, 21]: > 20 µM
Structure (SMILES): CN(C)CCC=C1c2ccccc2C(C)(C)c2ccccc21 [SW-14, Melitracin]

Structure (SMILES): CN(C)CCNC1c2ccccc2-c2ccccc21 [SW-09, N′-Fluoren-9-yl-N,N-dimethyl-ethylenediamine dihydrochloride]
IC50 [1, 20]: > 20 µM
EC50 [2, 21]: > 20 µM

IC50 [1, 20]: > 10 µM
EC50 [2, 21]: > 20 µM
Structure (SMILES): CN(C)CCCC1(O)c2ccccc2C=Cc2ccccc21 [SW-11, 5-(3-Dimethylamino-propyl)-5H-dibenzo[a,d]cyclohepten-5-ol]

IC50 [1, 20]: > 20 µM
EC50 [2, 21]: > 20 µM
Structure (SMILES): CN(CCCN1c2ccccc2CCc2ccccc21)CC(=O)c1ccc(Cl)cc1 [SW-06, Lofepramine]

Structure (SMILES): C[N+](C)([O-])CCC=C1c2ccccc2CCc2ccccc21.Cl [SW-03, 3-(10,11-Dihydro-5H-dibenzo[a,d]cyclohepten-5-ylidene)-N,N-dimethyl-1-propanamine N-oxide hydrochloride]
IC50 [1, 20]: 10 µM
EC50 [2]: > 20 µM
RET autophosphorylation [2, 22]: did not affect RET autophosphorylation

Structure (SMILES): CN(C)CCC=C1c2ccccc2C=Cc2ccccc21.Cl [SW-01, Cyclobenzaprine Hydrochloride]
apoptosis [3]: caused apoptosis in MCF7 cells in a dose-dependent fashion
RET phosphorylation (pRET/RET) [4]: inhibited by SW-01 in a concentration dependent fashion
apoptosis [5]: led to apoptosis
tumour growth [6]: caused slowed and reduced tumour growth
amount of pERK [7]: significantly reduced
RET phosphorylation (pRET/RET) [8]: inhibited by SW-01 in a concentration dependent fashion
cell migration (wound closure) [9]: cell migration was inhibited
IC50 ([1]; kinase assays using purified recombinant RET proteins, Hydrochloride, read-out: IC50 for RET): 0.3 µM and 0.307 µM
IC50 [1, 20]: 0.3 µM
RET autokinase activity ([1]; purified recombinant RET, pY905 Western blot): significantly reduced RET autokinase activity
effect on ERK or AKT pathways [10]: did not affect ERK or AKT pathways
cell proliferation (MTT) [11]: caused decreased cell proliferation
apoptosis [12]: caused apoptosis in NCIH69 cells in a dose-dependent fashion
cell morphology [13]: exhibited induced morphological changes
cell proliferation (MTT) [14]: caused decreased cell proliferation
RET autophosphorylation ([2]; 10 μM for 2 hours, HEK293 cells expressing activated wildtype RET, Hydrochloride): significantly inhibited RET autophosphorylation
RET autophosphorylation ([2]; 10 μM for 2 hours, HEK293 cells expressing activated wildtype RET, listed as NSC78206, Hydrochloride): significant RET inhibition
EC50 ([2]; EC50, cell based assay): 1 µM
expression levels of RET ([2]; pan RET antibody, HEK293 cells): did not affect expression levels of RET
RET autophosphorylation [2, 22]: blocked or dramatically reduced
apoptosis [15]: caused dose-dependent apoptosis
SW-01 Inhibition (10 μM) [16]: ++
RET-mediated colony formation in soft agar [17]: inhibits RET-mediated colony formation
RET-mediated cell proliferation (MTT) [18]: reduces RET-mediated cell proliferation
tumour growth [19]: no statistical difference between SW-01 and gemcitabine treatment groups

Structure (SMILES): CCN(CC)CCCOC(=O)CC1c2ccccc2C=Cc2ccccc21 [SW-12, (5H-Dibenzo[a,d]cyclohepten-5-yl)-acetic acid 3-diethylamino-propyl ester]
IC50 [1, 20]: 4 µM
EC50 [2]: > 20 µM

Structure (SMILES): CNCCC=C1c2ccccc2CCc2ccccc21.Cl [SW-02, Nortriptyline Hydrochloride]
IC50 ([1]; purified protein assay, Hydrochloride, read-out: IC50): 5 µM
EC50 ([2]; EC50, cell based assay): > 20 µM
RET autophosphorylation ([2]; varying concentrations, 2 hours, HEK293 cells expressing RET, Hydrochloride): inhibited RET activity; also recorded: decreased RET activity

IC50 [1, 20]: > 20 µM
EC50 [2, 21]: > 20 µM
Structure (SMILES): NCCCC1(CCCN)c2ccccc2-c2ccccc21 [SW-10, 9,9-Bis(3-aminopropyl)-fluorine]

Structure (SMILES): CNCCC=C1c2ccccc2C=Cc2ccccc21 [SW-15, Norcyclo- benzaprine (NCBA)]
EC50 [2]: 1 µM
RET autophosphorylation [2, 22]: inhibited RET

Structure (SMILES): CNCCC=C1c2ccccc2CCc2ccccc21 [SW-04, Nortriptyline]
IC50 [1, 20]: 1.5 µM
EC50 ([2]; EC50, cell based assay): 10 µM
RET autophosphorylation [2, 22]: did not affect RET autophosphorylation

Structure (SMILES): NCC1c2ccccc2CCc2ccccc21 [SW-08, 10,11-Dihydro-5H-dibenzo[a,d]cycloheptene-5-methanamine]
IC50 [1, 20]: 5 µM
EC50 [2]: 20 µM

Structure (SMILES): CN(C)CCC=C1c2ccccc2CCc2ccccc21 [SW-05, Amitriptyline]
IC50 [1, 20]: 1 µM
EC50 [2]: 5 µM
RET autophosphorylation [2, 22]: inhibited RET activity; also recorded: decreased RET activity

IC50 [1, 20]: 2.5 µM
EC50 [2, 21]: 7 µM
Structure (SMILES): CN(C)CCOC1c2ccccc2C=Cc2ccccc21 [SW-13, [2-(5H-Dibenzo[a,d]cyclohepten-5-yloxy)-ethyl]-dimethyl-amine]

Structure (SMILES): Nc1ccn([C@@H]2O[C@H](CO)[C@@H](O)C2(F)F)c(=O)n1 [gemcitabine, reference compound]
tumour growth [19]: no statistical difference between SW-01 and gemcitabine treatment groups
